Measurements published in EP0319644A2, “Alkylated amide derivatives, their use and pharmaceutical compositions containing them” (THE GREEN CROSS CORPORATION, priority 1987, dated 1989).

Experiments:
[1] = system: water immersed restraint stress ulcerization; assay: Rat water immersed restraint stress ulcerization (Test Example 1); type: in vivo, male Wistar rats; details: dose 5 mg/kg orally 90 minutes before stress loading; for Ulcer Index (Mean ± S.B.): 7 hours immersion at 22 ± 1 °C, suspended in saline containing 10% HCO-60, sum of ulcer lengths per rat; for Inhibition rate (%): versus untreated control
Protocol: Each test compound was suspended in physiological saline containing 10% polyoxyethylene cured caster oil (HCO-60: manufactured by Nikko Chemicals), and was then tested.
(§1) The test was conducted according to the method of rat water immersed restraint stress ulcerization proposed by Okabe et al. (Jpn. J. Pharmacol., 18, 9, (1968)). That is, male Wistar rats weighing 230 to 250 g were fasted for 24 hours, put in a stress cage in the erect position, and were immersed in a thermostatic water tank at 22 ± 1 °C up to the sternal process. The rats were sacrificed 7 hours later, and the stomach was removed. The pylorus was ligated and 10 ml of physiological saline was infused into the stomach. The cardia also was ligated and dipped in 1% formalin for 5 to 10 minutes. Afterwards, the stomach was opened along the greater curvature, and any blood deposited on the mucosa in the glandular portion was wiped off gently. The length of the remaining ulcers (erosions) was measured. The sum (mm) of the length of the ulcers in each rat was defined as the ulcer index. The test material was administered orally 90 minutes before stress loading (dose: 5 mg/kg).

[2] = system: water immersed restraint stress ulcerization; assay: Rat water immersed restraint stress ulcerization, gum arabic preparation (Test Example 2); type: in vivo, Male Wister rats; details: for Ulcer Index (Mean ± S.B.) / Inhibition rate (%): dose 25 mg/kg orally, preparation with 5% gum arabic (2 ml/kg); for Ulcer Index (Mean ± S.B.): rats fasted overnight; for Inhibition rate (%): versus control; for antiulcer activity: summary in words of Table 2, no significant difference between the two compounds
Protocol: as §1
Male Wister rats weighing 200 to 220 g were fasted overnight and the preparation containing Compound 2 (S-(2-cyclohexylethyl)-N-(2-decenoyl) cysteamine) and 5% gum arabic or the preparation containing the S-oxide derivarive of Compound 2 (S-(2-cyclohexylethyl)-N-(2-decenoyl) cysteamine S-oxide) and 5% gum arabic was orally administered to each rat (2 ml/kg).
Antiulcer activity of each test compound was evaluated in the same manner as in Test Example 1.

Compound | Ulcer Index (Mean ± S.B.) [1] | Inhibition rate (%) [1] | Ulcer Index (Mean ± S.B.) [2] | Inhibition rate (%) [2] | antiulcer activity [2]
CCCCCCCC=CC(=O)NCCSCCC1CCCCC1 [Compound 2, S-(cyclohexylethyl)-N-(2-decenoyl) cysteamine] | 6.7 ± 1.7 mm | 69.5% | 10.0 ± 1.5 mm | 58.0% | excellent antiulcer activity
CCCCCCC/C=C/C(=O)NCCSCC1CCCCN1C (stereo not drawn) [Compound 8, N-(2-decenoyl)-S-[(1-methylpiperidyl)methyl] cysteamine] | 8.0 ± 1.7 mm | 63.6% | – | – | –
CCCCCCCC=CC(=O)NCC[S+]([O-])CCC1CCCCC1 (stereo not drawn) [S-oxide of Compound 2, S-(2-cyclohexylethyl)-N-(2-decenoyl) cysteamine S-oxide] | – | – | 12.8 ± 1.9 mm | 46.2% | excellent antiulcer activity
